{
  "source": "patent US11425909B2",
  "about": "“Use of tetrazolinones for combating resistant phytopathogenic fungi on fruits” (priority 2016, dated 2022)",
  "test_system": "Uncinula necator (UNCINE), Qol-sensitive isolate",
  "assay": "Activity against grape powdery mildew, protective glasshouse test, Qol-sensitive isolate",
  "type": "in vivo",
  "details": "% infected leaf area on grape plants, inoculated 2 days after treatment, assessed 19 days after inoculation",
  "method": "Activity against grape powdery mildew caused by Uncinula necator (UNCINE)\nThe active compounds were formulated separately. Both compounds were applied on plants at the same concentrations of 100, 25 and 5 ppm. The spray broths were prepared as aqueous solutions based on a 6% EC of compound I according to the present invention and a 5% Aceton/water solution of compound I-213 from prior art (WO2013/092224).\nThe spray solutions were applied until runoff using an experimental glasshouse spray machine at a water volume equivalent to 1.000 L/ha. Treated plants were placed (together with untreated plants as a reference for infection success) in a glasshouse chamber at approx. 18° C. and 50% rH for two days. Two days after treatment, the plants were split into two groups. They were artificially inoculated using an aqueous conidia suspension of 0.1 to 0.5 E05 conidia/ml. One part was inoculated using a Qol-sensitive isolate, the other part using a Qol-resistant isolate carrying the target mutation G143A. After the artificial inoculation, the plants were placed in a glasshouse chamber at 21° C. and 55% rH for 19 days. The assessment of the infection was done 19 days after the inoculation and reported as % infected leaf area on two leaves which were fully covered by the spray application.",
  "data": [
    {"smiles": "Cc1cccc(-n2nnn(C)c2=O)c1COc1ccn(-c2ccc(Cl)cc2)n1", "note": "[compound I, 1-[2-[[1-(4-chlorophenyl)pyrazol-3-yl]oxymethyl]-3-methyl-phenyl]-4-methyl-tetrazol-5-one]", "values": [
      {"measurement": "Infection (%) Sens. Uncinula necator", "setting": "5 ppm spray", "value": 0.3, "unit": "%"},
      {"measurement": "Infection (%) Sens. Uncinula necator", "setting": "25 ppm spray", "value": 0.4, "unit": "%"},
      {"measurement": "Infection (%) Sens. Uncinula necator", "setting": "100 ppm spray", "value": 0.0, "unit": "%"}
    ]}
  ]
}
